Test results: the NIST ThermoML archive (doi:10.1016/j.fluid.2014.09.014)

Columns and labels:
[1] = 298.15 K; 101.33 kPa; Liquid; mechanical oscillator
[2] = Boiling temperature at pressure P; conditions: Liquid, Ebulliometric method (Recirculating still)
[3] = refractive index (Na D-line) (dimensionless); conditions: 298.15 K; 101.33 kPa; Liquid; Standard Abbe refractometry
[4] = xn = mol fraction of the nth substance listed; conditions: 101 kPa, Liquid, mechanical oscillator
[5] = refractive index (other wavelength) (dimensionless); xn = mol fraction of the nth substance listed; conditions: 101 kPa, Liquid, Standard Abbe refractometry

CC(C)O [propan-2-ol]
Conditions	mass density [kg/m3]	refractive index
[1]	782.45	–
[3]	–	1.37522

[2]
Conditions	Boiling temperature at pressure P [°C]
14.02 kPa	39.48
16.09 kPa	42.07
18.94 kPa	45.20
21.65 kPa	47.82
24.56 kPa	50.31
26.99 kPa	52.21
29.69 kPa	54.2
32.53 kPa	56.04
36.08 kPa	58.20
38.28 kPa	59.5
40.49 kPa	60.7
43.63 kPa	62.27
45.88 kPa	63.37
48.77 kPa	64.71
51.47 kPa	65.91
54.24 kPa	67.08
56.82 kPa	68.12
59.59 kPa	69.20
62.14 kPa	70.2
65.69 kPa	71.43
67.6 kPa	72.09
70.27 kPa	72.98
73.16 kPa	73.93
75.65 kPa	74.72
78.35 kPa	75.6
81.05 kPa	76.36
83.8 kPa	77.16
86.4 kPa	77.90
96.28 kPa	80.54

CC(C)OC(C)C [diisopropyl ether]
Conditions	mass density [kg/m3]	refractive index
[1]	718.3	–
[3]	–	1.3653

CO [methanol]
Conditions	mass density [kg/m3]	refractive index
[1]	786.62	–
[3]	–	1.32666

[2]
Conditions	Boiling temperature at pressure P [°C]
26.55 kPa	33.76
29.52 kPa	36.0
32.46 kPa	37.94
35.65 kPa	39.93
37.8 kPa	41.19
40.63 kPa	42.76
43.23 kPa	44.12
44.63 kPa	44.83
48.35 kPa	46.62
51.4 kPa	48.00
53.97 kPa	49.11
56.89 kPa	50.32
59.55 kPa	51.38
62.25 kPa	52.41
64.9 kPa	53.39
67.5 kPa	54.32
70.07 kPa	55.21
72.95 kPa	56.17
75.66 kPa	57.1
78.35 kPa	57.90
81.05 kPa	58.72
83.76 kPa	59.52
86.46 kPa	60.30
96.35 kPa	63.00

CO [methanol] + CC(C)OC(C)C
[4], x1 = 1
Conditions	mass density [kg/m3]
293.15 K	791.62
298.15 K	786.62
303.15 K	781.54
308.15 K	776.5
313.15 K	771.53
318.15 K	766.6

refractive index, [5], x1 = 1
Conditions	Wavelength=40.47 nm	Wavelength=435.8 nm	Wavelength=486.1 nm	Wavelength=546.1 nm	Wavelength=587.6 nm	Wavelength=589.3 nm	Wavelength=632.8 nm	Wavelength=644 nm	Wavelength=706.5 nm
293.15 K	1.33767	1.3353	1.3324	1.32991	1.32869	1.32864	1.32754	1.3273	1.3261
298.15 K	1.33564	1.3333	1.3304	1.328	1.32671	1.32666	1.32558	1.32535	1.32415
303.15 K	1.33357	1.33126	1.32839	1.32597	1.32471	1.32467	1.3236	1.32336	1.32219
308.15 K	1.33153	1.32926	1.32637	1.32397	1.32274	1.32269	1.32163	1.32138	1.32021
313.15 K	1.32947	1.32722	1.32434	1.32196	1.32073	1.32068	1.31965	1.31942	1.31825
318.15 K	1.32742	1.32518	1.32234	1.31993	1.31874	1.3187	1.31768	1.31744	1.31631

CC(C)O [propan-2-ol] + CC(C)OC(C)C
[4], x2 = 0
Conditions	mass density [kg/m3]
293.15 K	786.91
298.15 K	782.45
303.15 K	777.84
308.15 K	773.13
313.15 K	768.47
318.15 K	763.79

refractive index, [5], x2 = 0
Conditions	Wavelength=404.7 nm	Wavelength=435.8 nm	Wavelength=486.1 nm	Wavelength=546.1 nm	Wavelength=587.6 nm	Wavelength=589.3 nm	Wavelength=632.8 nm	Wavelength=644 nm	Wavelength=706.5 nm
293.5 K	1.3883	1.38525	1.38179	1.37892	1.37742	1.37736	1.37605	1.37574	1.37424
298.15 K	1.3861	1.38307	1.37963	1.37678	1.37527	1.37522	1.37392	1.37361	1.37214
303.15 K	1.38379	1.38078	1.37738	1.37453	1.37304	1.37299	1.3717	1.3714	1.36993
308.15 K	1.38152	1.37851	1.37512	1.3723	1.3708	1.37075	1.36946	1.36917	1.36772
313.15 K	1.37921	1.37624	1.37288	1.37005	1.36857	1.36852	1.36726	1.36696	1.36551
318.15 K	1.37691	1.37397	1.37061	1.36782	1.36635	1.36629	1.36502	1.36473	1.36329
